Measured values published in US7250521B2, “Method for production of Δ1-pyrrolines” (Bayer CropScience Aktiengesellschaft, priority 2001, dated 2007).

Test: logP determination by HPLC on reverse-phase column (C 18), EEC directive 79/831 Annex V.A8
Assay type: physicochemical
Procedure: In the acidic range, the determination is carried out at pH 2.3 using the mobile phases 0.1% aqueous phosphoric acid and acetonitrile; linear gradient from 10% acetonitrile to 90% acetonitrile.
In the neutral range, the determination is carried out at pH 7.5 using the mobile phases 0.01 molar aqueous phosphate buffer solution and acetonitrile; linear gradient from 10% acetonitrile to 90% acetonitrile.

[1] = reverse-phase HPLC column (C 18), pH 2.3, acidic range, pH 2.3; 0.1% aqueous phosphoric acid/acetonitrile gradient; 43° C.; values marked a)
[2] = reverse-phase HPLC column (C 18), pH 7.5, neutral range, pH 7.5; 0.01 molar aqueous phosphate buffer/acetonitrile gradient; 43° C.; values marked b)

| Structure (SMILES) | chromatographic logP [1] | chromatographic logP [2] |
| --- | --- | --- |
| Cc1cc(Cl)ccc1C1CCC(=O)N1 (stereo not drawn) [Example V-6] | 1.86 |  |
| CC(C)Oc1ccc(C2CCC(c3c(F)cccc3F)=N2)cc1 (stereo not drawn) [Example 110] | 2.14 |  |
| Fc1ccc(C2CCC(c3ccccc3Br)=N2)cc1 (stereo not drawn) [Example 99] | 2.18 |  |
| Fc1cccc(F)c1C1=NC(c2ccc(OCc3ccc(C(F)(F)F)cc3)cc2)CC1 (stereo not drawn) [Example 108] | 3.41 |  |
| Fc1ccccc1C1=NC(c2ccc(OC(F)(F)F)cc2)CC1 (stereo not drawn) [Example 68] |  | 4.41 |
| CC(=O)c1ccc(C2CCC(c3ccccc3Br)=N2)cc1 (stereo not drawn) [Example 84] | 2.14 | 3.09 |
| Cc1ccc(C2CCC(=O)N2C(=O)OC(C)(C)C)c(C)c1 (stereo not drawn) [III-17] | 3.2 |  |
| Clc1ccc(C2CCC(c3ccccc3Cl)=N2)cc1Cl (stereo not drawn) [Example 45] | 3.83 | 4.75 |
| C=CCOc1ccc(C2CCC(c3ccccc3F)=N2)cc1 (stereo not drawn) [Example 10] | 1.63 |  |
| Cc1ccc(C2CCC(c3ccccc3Br)=N2)c(Cl)c1 (stereo not drawn) [Example 47] | 3.98 | 4.88 |
| Fc1ccccc1C1=NC(c2ccc(-c3ccc(OC(F)(F)F)cc3)cc2)CC1 (stereo not drawn) [Example 4] | 3.09 | 5.45 |
| CC(C)(C)OC(=O)N1C(=O)CCC1c1ccc(CCc2ccccc2)cc1 (stereo not drawn) [III-19] | 4.11 |  |
| Cc1ccc(C2CCC(c3ccccc3Br)=N2)c(C)c1 (stereo not drawn) [Example 80] | 2.55 | 4.46 |
